# Assay results from US20060110376A1, “MDA-7 and free radicals in the treatment of cancer” (priority 2002, published 2006).
# Peptide text beside a SMILES is read from it. * marks the point of attachment. Cbz = O=C(OCc1ccccc1)*; CH2F = FC*
# Legend:
# prostate carcinoma cells = assay: ROS production (DCF fluorescence, flow cytometry); assay type: cell-based, human; details: treated with NSC656240 or As2O3
# Method: (§1) Cells were seeded in 96-well plates, pretreated with NAC (5 mM) or Tiron (1 mM) for 2 h and infected with Ad.mda-7. Forty eight hours later, viability was assessed by MTT assay. […] Cells were seeded in 96-well plates, infected with Ad.mda-7 and treated with As2O3 (10 μM) or NSC656240 (400 nM). Forty eight h later, viability was assessed by MTT assay. Panel C. […] After treatment, cells were stained using DCF-DA and analyzed using flow cytometry. […] After treatment, cells were washed and stained with Annexin V-FITC conjugate. Late apoptotic and necrotic cells were excluded using PI staining. Results are the mean of three independent experiments performed with triplicate samples±S.E.
# [1] = test system: pancreatic carcinoma cells; assay: ROS production (flow cytometry); assay type: cell-based, human
# Method: FIG. 46. Combined treatment by NSC656240 or Ar2O3 and Ad.mda-7 causes overproduction of ROS in pancreatic carcinoma cells.
# Assessment of ROS Production. To determine ROS production, cells were stained with 2.5 μM HE or 5 μM DCFH-DA in PBS for 30 min at 37° C. in the dark. Immediately after staining, cells were analyzed by flow cytometry (FACSscan, Becton-Dickinson, Mountain View, Calif.), and data were analyzed using CellQuest software, version 3.1 (Becton Dickinson). For inhibition experiments, NAC (Sigma) was added 2 h prior to infection with Ad.mda-7. In all cases, cells were gated to exclude cell debris.
# [2] = test system: normal cells (immortalized human astrocytes or melanocytes); assay: MTT viability assay; assay type: cell-based; details: Ad.mda-7 100 p.f.u./cell
# Method: (§2) MTT Viability Assays. Cell viability was assessed by MTT assays as described (Lebedeva et al., 2000, Cancer Research 60:6052-6060). Briefly, cells were seeded in 96-well tissue culture plates (1.5×10^3 cells per well) and treated with various agents. At the indicated times, medium was removed, and fresh medium containing 0.5 mg/ml MTT was added to each well. The cells were incubated at 37° C. for 4 h and then an equal volume of solubilization solution (0.01N HCl in 10% SDS) was added to each well and mixed thoroughly. The optical density from the plates was read on a BioRad Microplate Reader Model 550 at 595 nm.
# [3] = test system: pancreatic cancer cells stably transformed to express MDA-7; assay: Apoptosis and cell death in cells stably expressing MDA-7; assay type: cell-based, human
# Text: FIG. 49. Induction of apoptosis in pancreatic cancer cell lines (PANC-1) stably expressing MDA-7.
# FIG. 50. Induction of apoptosis in pancreatic cancer cell lines (Mia PaCa-2) stably expressing MDA-7.
# FIG. 51. Induction of apoptosis in pancreatic cancer cell lines (FM516 or BxPC-3) stably expressing MDA-7.
# [4] = test system: pancreatic carcinoma cells; assay: MTT viability assay; assay type: cell-based, human; details: Ad.mda-7 100 p.f.u./cell
# Method: as §2
# [5] = test system: prostate carcinoma cell lines (DU-145, PC-3, LNCaP); assay: MTT viability assay; assay type: cell-based, human
# Method: as §1
# […] Cellular viability was assessed by MTT assay 48 h after infection (Panel A). Mitochondrial membrane potential (DiOC6(3) staining, Panel B) and apoptotic changes (Annexin V staining, Panel C) were assessed 18 h (LNCaP cells) and 24 h (DU-145, PC-3 and P69 cells) after infection.
# as §2, with “This method” for “Cell viability”, “performed” for “assessed by MTT assays”, “Briefly, cells were seeded in 96-well tissue culture plates (1.5×10^3 cells per well) and treated with various agents.” left out, “time points,” for “times,”
# [6] = test system: pancreatic carcinoma cells; assay: Apoptosis (annexin V exposure, hypodiploid A0 cells); assay type: cell-based, human; details: annexin V exposure and A0 population
# Text: FIG. 39. Combined treatment of pancreatic carcinoma cells by NSC656240 and Ad.mda-7 increases levels of annexin V in pancreatic cancer cells irrespective of K-ras status.
# FIG. 40. NAC administration prevents the apoptosis of pancreatic cancer cells induced by treatment of pancreatic carcinoma cells by NSC656240 or Ar2O3 and Ad.mda-7.
# FIG. 41. Combined treatment of pancreatic carcinoma cells by NSC656240 or Ar2O3 and Ad.mda-7 causes apoptosis irrespective of K-ras status.
# Annexin V Binding Assays. Cells were trypsinized, washed once with complete medium and stained with FITC-labeled Annexin-V (kit from Oncogene Research Products, Boston, Mass.) according to the manufacturer's instructions. Flow cytometry was performed immediately after staining.
# Cell Cycle Analysis. Cells were trypsinized, washed 2× with PBS and fixed in 70% ethanol overnight at −20° C. Then cells were washed 2 times with PBS, and aliquots of 1×10^6 cells were resuspended in 1 ml of PBS containing 1 mg/ml of RNase A and 0.5 mg/ml of propidium iodide. After 30 min incubation, cells were analyzed by flow cytometry using a FACScan flow cytometer (Becton Dickinson, San Jose, Calif.).
# [7] = test system: pancreatic cancer cell lines; assay: Western blotting of K-ras and MDA-7 protein; assay type: cell-based, human
# Text: FIG. 43. MDA-7 expression in pancreatic cancer cell lines in the presence or absence of Ad.mda-7, Ad.K-rasAS, or NSC656243. The presence of MDA-7 in mutant K-ras cell lines requires expression of both mda-7 and the antisense K-ras construct, and is potentiated by NSC656243.
# FIG. 45. The MDA-7 expression observed in the PANC-1 or BxPC-3 cell lines following administration of Ad.mda-7 in combination with either NSC656240 or Ar2O3 is abrogated by NAC administration.
# Preparation of Cell Extracts and Western Blotting Analysis. Cells were washed 2× with cold PBS and lysed on ice for 30 min in […] of cold RIPA buffer [50 mM Tris-HCl (pH 8.0), 150 mM NaCl, 0.1% SDS, 1% NP40, and 0.5% sodium deoxycholate] with freshly added 0.1 mg/ml phenylmethylsulfonyl fluoride, 1 mM sodium orthovanadate, and 1 mg/ml aprotinin. After cell debris were removed by centrifugation at 14,000 g for 10 min at 4° C., protein concentrations were determined using the Bio-Rad protein assay system (Bio-Rad Laboratories, Richmond, Calif.). Aliquots of cell extracts containing […] of total protein were resolved in 12% SDS-PAGE and transferred to Immobilon-P PVDF membranes (Millipore Corp., Bedford, Mass.). Filters were blocked for 1 h at room temperature in Blotto A [5% nonfat milk powder in TBS-T: 10 mM Tris-HCl (pH 8.0), 150 mM NaCl, 0.05% Tween 20], and then incubated for 1 h at room temperature in Blotto A containing a 1:1000 dilution of rabbit anti MDA-7 polyclonal antibody. After washing in TBS-T buffer (3×5 min, RT), filters were incubated for 1 h at room temperature in Blotto A containing a 1:10,000 dilution of peroxidase conjugated anti-rabbit secondary antibody (Amersham, Arlington Heights, Ill.). After washing in TBS-T, ECL was performed according to the manufacturer's recommendation.
# RT2 cells = assay: MTT assay with kinase inhibitors; assay type: cell-based, rat
# Method: Data are the means±SEM of 3 experiments # p<0.05 less than control treated cells, * p<0.05 less than corresponding value in cells not infected with Ad-mda-7. Panel C. […] Data are the means±SEM of 3 separate experiments. […] Data are the means±SEM of 3 separate experiments. […] Cells were incubated with vehicle or SP600125 (10 μM) 30 min prior to irradiation and growth determined via MTT assay 4 days after irradiation (±SEM, n=4).
# The MTT test is based on the enzymatic reduction of the tetrazolium salt MTT in living, metabolically active cells. […] Twenty-four hours after infection/protein treatment, cells were treated with kinase inhibitor drugs and then irradiated. […] The plates were read on a Dynatech MR600 Microplate Reader at 540 nm. All data were normalized relative to the control, non-treated unirradiated cells of the corresponding cell type.
# [8] = test system: prostate cancer cell lines (DU-145, PC-3, LNCaP); assay: Mitochondrial ΔΨm (DiOC6(3)) and ROS time course; assay type: cell-based, human; details: CsA, BA pretreatment; 18 h (LNCaP), 24 h (DU-145, PC-3)
# Method: (§3) FIG. 33A-C. […] Prostate cancer and normal immortalized P69 cells were pretreated with inhibitors of MPT CsA (100 nM) or BA (50 μM), with the enhancer of MPT PK11195 (50 μM) or with the pan-caspase inhibitor z-VAD.fmk (50 μM) for 2 h following infection with Ad.vec or Ad.mda-7. Cellular viability was assessed by MTT assay 48 h after infection (Panel A). Mitochondrial membrane potential (DiOC6(3) staining, Panel B) and apoptotic changes (Annexin V staining, Panel C) were assessed 18 h (LNCaP cells) and 24 h (DU-145, PC-3 and P69 cells) after infection.
# SKOV3 cells = assay: MTT assay with 4-HPR; assay type: cell-based, human; details: 500 nM 4-HPR; MTT 96 h
# Method: FIG. 35. Effect of transduction by Ad.mda-7 on the growth of the ovarian cancer cell line SKOV3 in the presence or absence of N-(4-hydroxyphenyl) retinamide (4-HPR).
# SKOV3 cells (ATCC, Manassas Va.) were plated at 10,000 per well in 24 well plates. 24 h after plating cells were infected with either control virus or Ad.mda-7 virus at increasing multiplicities of viral infection. 24 h after infection, cells were treated with 500 nM 4-HPR. 96 h after 4-HPR addition, cell numbers were determined using MTT assays as described above.
# [9] = test system: normal immortal P69 prostate epithelial cells; assay: MTT viability assay; assay type: cell-based, human; details: PK11195 50 μM
# Method: as §1, §3
# MTT Viability Assays. […] The optical density from the plates was read on a BioRad Microplate Reader Model 550 at 595 nm.
compound,measurement,setting,value
O=C1c2ccsc2C(=O)c2sc(CO)cc21 [NSC656240],ROS levels,prostate carcinoma cells,ROS levels increased proportionally
same,"ROS production, combined treatment with Ad.mda-7",[1],Caused ROS overproduction
same,"growth, combinational treatment with Ad.mda-7",[2],does not affect growth of normal cells
same,apoptosis and cell death,[3],caused apoptosis and cell death
same,"cell death, combinational treatment with Ad.mda-7",[4],caused death of these cells irrespective of their K-ras status
same,effect of ROS-producing agent on cell death of Ad.mda-7-infected cells,"[5]; As2O3 10 μM, NSC656240 400 nM, 48 h",potentiated cell death
same,"apoptosis, combination treatment with Ad.mda-7",[6],caused apoptosis in pancreatic carcinoma cells independently of their K-ras status
same,K-ras protein expression,[7]; alone or in combination with Ad.mda-7,does not down-regulate K-ras protein expression
same,"MDA-7 protein expression and secretion, combined treatment with Ad.mda-7",[7]; wt and mutated K-ras pancreatic cancer cell lines,leads to MDA-7 protein expression and secretion
O=S(=O)(O)c1cc(O)c(O)c(S(=O)(=O)O)c1 [Tiron],effect of antioxidant on cell death promoting activity of Ad.mda-7,"[5]; NAC 5 mM, Tiron 1 mM, 48 h",abrogated
COC(=O)C[C@H](NC(=O)[C@H](C)NC(=O)[C@@H](NC(=O)OCc1ccccc1)C(C)C)C(=O)CF [z-VAD.fmk] (Cbz-Val-Ala-Asp(OMe)-CH2F),effect of z-VAD.fmk on cell death,[5]; z-VAD.fmk 50 μM,inhibited cell death
COc1cccc(-c2cc(=O)c3ccccc3o2)c1N [PD98059],effect of combined MEK1/2 and PI3K inhibition on proliferation of Ad.mda-7 infected cells,RT2 cells; 10 μm PD98059 + 5 μm LY294002,significant additional reduction in proliferation
same,effect of single kinase inhibitor on anti-proliferative effects of Ad.mda-7,RT2 cells; 10 μm PD98059 or 5 μm LY294002,neither MEK1/2 nor PI3K enhanced the anti-proliferative effects
"CO[C@H](C/C=C\C=C\CC/C=C/C[C@H](C)/C=C/C(=C\C(=O)O)CC(=O)O)/C(C)=C\C=C(/C)C(=O)O [BA, bongkrekic acid]",effect of MPT inhibitor on cell death of Ad.mda-7-infected cells,"[5]; CsA (200 nM), BA (50 μM) pretreatment 2 h",prevented cell death
same,effect on Ad.mda-7-induced decline in ΔΨm,[8],abrogated the decline in ΔΨm
"CC1=C(/C=C/C(C)=C/C=C/C(C)=C/C(=O)Nc2ccc(O)cc2)C(C)(C)CCC1 [4-HPR, N-(4-hydroxyphenyl) retinamide]",effect of 4-HPR on toxic effects of MDA-7 expression,SKOV3 cells,potentiated the toxic effects of MDA-7 expression
CCC(C)N(C)C(=O)c1cc2ccccc2c(-c2ccccc2Cl)n1 (stereo not drawn) [PK11195],"effect of PK11195 on MPT, annexin V staining and killing",[9],without inducing any of these changes in P69 cells
same,effect of PK11195 on Ad.mda-7-induced killing,[5]; PK11195 50 μM,enhanced Ad.mda-7-induced killing
